# Patent US6864253B2, “Benzo[4,5]thieno[2,3-c]pyridine and Benzo[4,5]furo[2,3-c]pyridine Derivatives Useful as Inhibitors of Phosphodiesterase” (Orth-McNeil Pharmaceutical, Inc., priority 2000, dated 2005)
# Molecular target: PDEV (Oryctolagus cuniculus, UniProt G1SX67)
# Experiment: Cyclic nucleotide phosphodiesterase (PDE) assay, inhibition of PDEV isolated from rabbit tissue
# Assay type: biochemical
# Settings: not given
# Procedure: Briefly, rabbit or human tissues were homogenized in an ice-cold buffer solution containing 20 mM HEPES (pH 7.2), 0.25M sucrose, 1 mM EDTA, and 1 mM phenylmethylsulphonyl fluoride (PMSF). The homogenates were centrifuged at 100,000 g for 60 minutes at 4° C. The supernatant was filtered through […] filter and loaded on a Pharmacia Mono Q anion exchange column (1 ml bed volume) that was equilibrated with 20 mM HEPES, 1 mM EDTA and 0.5 mM PMSF. […] The fractions comprising various PDE activities were pooled separately and used in later studies.
# The assays were adapted to a 96-well format. The enzyme was assayed in 5 mM MgCl2, 15 mM Tris HCl (pH 7.4), 0.5 mg/ml bovine serum albumin, 1 μM cGMP or cAMP, 0.1 μCi [^3H]-cGMP or [^3H]-cAMP, and 2-10 μl of column elution. The total volume of the assay was 100 μl. The reaction mixture was incubated at 30° C. for 30 minutes. The reaction was stopped by boiling for 1 minute and then cooled down on ice. The resulting [^3H] 5′-mononucleotides were further converted to uncharged [^3H]-nucleosides by adding 25 μl 1 mg/ml snake venom (Ophiophagus hannah) and incubating at 30° C. for 10 minute. The reaction was stopped by the addition of 1 ml Bio-Rad AG1-X2 resin slurry (1:3). All the charged nucleotides were bound by the resin and only the uncharged [^3H]-nucleosides remained in the supernatant after centrifuging. An aliquot of 200 μl was taken and counted by liquid scintillation. PDE activity was expressed as pmol cyclic nucleotide hydrolyzed/min/ml of enzyme preparation.
# Inhibitor studies were carried out in assay buffer with a final concentration of 10% DMSO.
row,Compound,IC50 [µM]
1,CN(C)CCn1c2c(c3ccccc31)CCN(c1nc3ccccc3o1)C2c1ccc2c(c1)OCO2 (stereo not drawn) [Cmpd 155],9.2

# Same assay, conditions: 10 μM test compound; rabbit PDEV
Compound,% Inh @ 10 μM (rabbit) [%],% INH @ 10 μM (rabbit) [%]
COc1ccc(-c2cnc(N3CCc4c(n(CCN(C)C)c5ccccc45)C3c3ccc4c(c3)OCO4)nc2)cc1 (stereo not drawn) [Cmpd 6],95,–
O=C(O)Cn1c2c(c3ccccc31)CCN(C(=O)c1ccc(-c3cccc(C(F)(F)F)c3)o1)C2c1ccc2c(c1)OCO2 (stereo not drawn) [Cmpd 31],75,–
CN(C)CCn1c2c(c3ccccc31)CCN(C(=O)c1ccc(-c3ccc(Cl)cc3)o1)C2c1ccc2c(c1)OCO2 (stereo not drawn) [Cmpd 39],93,–
O=C(c1cc(-c2ccc(Cl)cc2)oc1C(F)(F)F)N1CCc2c([nH]c3ccccc23)C1c1ccc2c(c1)OCO2 (racemic) [Cmpd 105],40,–
Cc1onc(-c2ccccc2)c1C(=O)N1CCc2c([nH]c3ccccc23)C1c1ccc([N+](=O)[O-])cc1 (racemic) [Cmpd 118],28,–
O=C(c1ccc(-c2ccc(Cl)cc2)s1)N1CCc2c([nH]c3ccccc23)C1c1ccc2c(c1)OCO2 (stereo not drawn) [Cmpd 91],82,–
COc1ccc(C2c3[nH]c4ccccc4c3CCN2C(=O)c2cc(C(C)(C)C)nn2Cc2ccccc2)cc1 (stereo not drawn) [Cmpd 141],11,–
Cc1cc(C(=O)N2CCc3c([nH]c4ccccc34)C2c2ccc(OCCCN(C)C)cc2)nn1-c1ccccc1 (racemic) [Cmpd 107],15,–
CN(C)c1ccc(C2c3[nH]c4ccccc4c3CCN2C(=O)c2ccc(-c3cccc([N+](=O)[O-])c3)o2)cc1 (stereo not drawn) [Cmpd 83],27,–
O=C(c1ccc(-c2cccc(C(F)(F)F)c2)o1)N1CCc2c([nH]c3ccccc23)C1c1ccccc1 (stereo not drawn) [Cmpd 88],49,–
O=C(c1cnn(-c2ccc(Cl)cc2)c1C(F)(F)F)N1CCc2c([nH]c3ccccc23)C1c1ccc2c(c1)OCO2 (stereo not drawn) [Cmpd 124],53,–
O=C(c1ccc(-c2cccc([N+](=O)[O-])c2)o1)N1CCc2c([nH]c3ccccc23)C1c1ccncc1 (stereo not drawn) [Cmpd 86],69,–
Clc1ccc(-c2cnc(N3CCc4c([nH]c5ccccc45)C3c3ccc4c(c3)OCO4)nc2)cc1 (stereo not drawn) [Cmpd 10],79,–
O=S(=O)(c1ccccc1)c1ccc(S(=O)(=O)N2CCc3c([nH]c4ccccc34)C2c2ccc3c(c2)OCO3)s1 (stereo not drawn) [Cmpd 145],43,–
Cc1cc(C)cc(C2c3[nH]c4ccccc4c3CCN2C(=O)c2cc(C(C)(C)C)nn2Cc2ccccc2)c1 (stereo not drawn) [Cmpd 137],−3,–
O=C(c1ccc(-c2cccc(C(F)(F)F)c2)o1)N1CCc2c(n(CCCCCl)c3ccccc23)C1c1ccc2c(c1)OCO2 (stereo not drawn) [Cmpd 27],56,–
COc1ccc(C2c3[nH]c4ccccc4c3CCN2C(=O)c2c(-c3ccccc3)noc2C)cc1OC (racemic) [Cmpd 110],32,–
CN(C)CCn1c2c(c3ccccc31)CCN(C(=O)c1ccc(-c3ccc(Cl)cc3[N+](=O)[O-])o1)C2c1ccc2c(c1)OCO2 (stereo not drawn) [Cmpd 40],78,–
O=C(c1ccc(-c2cccc(C(F)(F)F)c2)o1)N1CCc2c(n(Cc3ccccn3)c3ccccc23)C1c1ccc2c(c1)OCO2 (stereo not drawn) [Cmpd 26],88,–
Cc1onc(-c2ccccc2)c1C(=O)N1CCc2c([nH]c3ccccc23)C1c1ccc2c(c1)OCO2 (racemic) [Cmpd 112],33,–
O=C(c1cc2ccccc2o1)N1CCc2c([nH]c3ccccc23)C1c1ccc2c(c1)OCO2 (stereo not drawn) [Cmpd 16],88,–

Compound,% Inh @ 10 μM (rabbit) [%],% INH @ 10 μM (rabbit) [%]
Cc1onc(-c2ccccc2)c1C(=O)N1CCc2c([nH]c3ccccc23)C1c1ccc(Cl)c(Cl)c1 (racemic) [Cmpd 109],31,–
c1ccc2c3c([nH]c2c1)C(c1ccc2c(c1)CCO2)N(c1ncc(-c2ccc(OCCN4CCOCC4)cc2)cn1)CC3 (stereo not drawn) [Cmpd 180],–,40
CN(C)CCn1c2c(c3ccccc31)CCN(C(=O)c1ccc(C(C)(C)C)o1)C2c1ccc2c(c1)OCO2 (stereo not drawn) [Cmpd 36],97,–
COc1ccc(C2c3[nH]c4ccccc4c3CCN2C(=O)c2cnn(-c3ccccc3)c2C(F)(F)F)cc1 (stereo not drawn) [Cmpd 130],45,–
c1ccc2sc(N3CCc4c([nH]c5ccccc45)C3c3ccc4c(c3)OCO4)nc2c1 (stereo not drawn) [Cmpd 3],84,–
FC(F)(F)c1ccc(Cl)c(-c2ccc(CN3CCc4c([nH]c5ccccc45)C3c3ccc4c(c3)OCO4)o2)c1 (stereo not drawn) [Cmpd 11],53,–
CC(C)(C)c1cc(C(=O)N2CCc3c([nH]c4ccccc34)C2c2ccc(C#N)cc2)n(Cc2ccccc2)n1 (stereo not drawn) [Cmpd 139],−9,–
O=C(c1cnn(-c2ccc([N+](=O)[O-])cc2)c1C(F)(F)F)N1CCc2c([nH]c3ccccc23)C1c1ccc2c(c1)OCO2 (stereo not drawn) [Cmpd 125],54,–
Cc1cc(C)cc(C2c3[nH]c4ccccc4c3CCN2C(=O)c2cnn(-c3ccccc3)c2C(F)(F)F)c1 (stereo not drawn) [Cmpd 126],12,–
CN(C)CCn1c2c(c3ccccc31)CCN(C(=O)c1ccc(-c3cccc([N+](=O)[O-])c3)o1)C2c1ccc2c(c1)OCO2 (stereo not drawn) [Cmpd 38],91,–
CC(C)(C)c1cc(C(=O)N2CCc3c([nH]c4ccccc34)C2c2ccc([N+](=O)[O-])cc2)n(Cc2ccccc2)n1 (stereo not drawn) [Cmpd 142],−5,–
CN(C)c1ccc(C2c3[nH]c4ccccc4c3CCN2C(=O)c2ccc(-c3cccc(C(F)(F)F)c3)o2)cc1 (stereo not drawn) [Cmpd 82],13,–
CC(C)(C)c1cc(C(=O)N2CCc3c([nH]c4ccccc34)C2c2ccc3c(c2)OCO3)n(Cc2ccccc2)n1 (stereo not drawn) [Cmpd 136],18,–
COc1ccc(C2c3[nH]c4ccccc4c3CCN2C(=O)c2cnn(-c3ccccc3)c2C(F)(F)F)cc1OC (racemic) [Cmpd 121],10,–
O=C(c1ccc(Br)o1)N1CCc2c([nH]c3ccccc23)C1c1ccc2c(c1)OCO2 (stereo not drawn) [Cmpd 63],78,–
N#Cc1ccc(C2c3[nH]c4ccccc4c3CCN2C(=O)c2cnn(-c3ccccc3)c2C(F)(F)F)cc1 (stereo not drawn) [Cmpd 128],11,–
O=C(c1cnn(-c2ccccc2)c1C(F)(F)F)N1CCc2c([nH]c3ccccc23)C1c1ccc(Cl)c(Cl)c1 (racemic) [Cmpd 120],18,–
O=C(c1ccc(-c2cccc([N+](=O)[O-])c2)o1)N1CCc2c(sc3ccccc23)C1c1ccc2c(c1)OCO2 (stereo not drawn) [Cmpd 76],27,–
O=C(c1ccc(Cl)nc1)N1CCc2c([nH]c3ccccc23)C1c1ccc2c(c1)OCO2 (racemic) [Cmpd 108],48,–
c1ccc2c3c([nH]c2c1)C(c1ccc2c(c1)CCO2)N(c1ncc(-c2ccc(OCCN4CCCC4)cc2)cn1)CC3 (stereo not drawn) [Cmpd 178],–,37
O=C(c1ccc(-c2cccc(C(F)(F)F)c2)o1)N1CCc2c(n(C(=O)c3ccc(-c4cccc(C(F)(F)F)c4)o3)c3ccccc23)C1c1ccc2c(c1)OC(F)(F)O2 (stereo not drawn) [Cmpd 20],4,–

# Same assay, conditions: 10 μM test compound; rabbit PDEV; 10 µM
row,Compound,% INH @ 10 μM (rabbit) [%]
1,COc1ccc(-c2cnc(N3CC(O)c4c([nH]c5ccccc45)C3c3ccc4c(c3)OCO4)nc2)cc1 (stereo not drawn) [Cmpd 164],82

# Same assay, conditions: 10 μM test compound; rabbit PDEV; read-out: % INH @ 10 μM (rabbit)
row,Compound,inhibition at 10 µM [%]
1,c1ccc(-c2cnc(N3CCc4c([nH]c5ccccc45)C3c3ccc4c(c3)OCO4)nc2)nc1 (stereo not drawn) [Cmpd 153],95
2,O=C(c1ccc(-c2ccccc2)o1)N1CCc2c([nH]c3ccccc23)C1c1ccc2c(c1)OCO2 (stereo not drawn) [Cmpd 149],80
3,CN(C)CCn1c2c(c3ccccc31)CCN(c1nc3ccccc3o1)C2c1ccc2c(c1)OCO2 (stereo not drawn) [Cmpd 155],57
4,CN(C)CCn1c2c(c3ccccc31)CCN(C(=O)c1ccc(-c3ccccc3)o1)C2c1ccc2c(c1)OCO2 (stereo not drawn) [Cmpd 152],80
